Results as given in patent publication US20230174523A1, “BENZENESULFONAMIDE DERIVATIVES AS TRAP1 MODULATORS AND USES THEREOF” (Amathus Therapeutics, Inc., priority 2020, published 2023).

Biological target: T1, TRAP1 enzyme (Homo sapiens, UniProt Q12931)
T1 sequence (Q12931 60-704): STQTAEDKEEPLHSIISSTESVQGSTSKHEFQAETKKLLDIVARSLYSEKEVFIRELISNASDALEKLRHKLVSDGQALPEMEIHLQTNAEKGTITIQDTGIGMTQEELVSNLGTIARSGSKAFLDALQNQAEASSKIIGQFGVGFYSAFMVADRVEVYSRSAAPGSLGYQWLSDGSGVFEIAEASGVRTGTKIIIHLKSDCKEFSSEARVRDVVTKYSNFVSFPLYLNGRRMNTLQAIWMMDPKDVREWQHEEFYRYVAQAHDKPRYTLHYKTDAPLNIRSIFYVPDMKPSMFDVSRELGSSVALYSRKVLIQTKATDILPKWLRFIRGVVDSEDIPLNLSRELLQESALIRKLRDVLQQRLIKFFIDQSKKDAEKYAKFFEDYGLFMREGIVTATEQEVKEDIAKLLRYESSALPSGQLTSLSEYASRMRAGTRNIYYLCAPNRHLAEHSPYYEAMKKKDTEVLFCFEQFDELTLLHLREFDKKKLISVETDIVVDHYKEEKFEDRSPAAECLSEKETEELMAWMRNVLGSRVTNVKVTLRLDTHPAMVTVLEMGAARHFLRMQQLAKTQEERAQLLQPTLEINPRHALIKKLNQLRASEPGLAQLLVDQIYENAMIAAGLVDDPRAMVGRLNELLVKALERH
Test: Malachite green phosphate assay of TRAP1 ATPase activity
Assay type: biochemical
Settings: for EC50: TRAP1 ATPase activation, 150 nM Trap1, 20 μM ATP, geometric mean, read-out: Malachite Green Fluor DRC: GeoMean EC50; for Emax: read-out: Malachite Green Fluor DRC: Mean Emax
Protocol: The Potency of test compounds to modulate the ATPase activity of TRAP1 enzyme was evaluated using malachite green phosphatase assay. The assay is based on quantification of the green complex formed between Malachite Green, molybdate and inorganic phosphate generated in the phosphatase reaction. Assays were performed using a Malachite Green assay kit. All the assays were carried out in a 96-well transparent plate. The buffer used was 50 mM HEPES (pH 7.5), 20 mM KCl, 4 mM MgCl2 and 0.05% BSA. 150 nM Trap1 enzyme was incubated with various concentrations of the test compound (0.78 μM-100 μM) at 37° C. for 30 mins. 20 μM ATP was added to each well (except blank wells) to start the reaction and the plate was then incubated at 37° C. for 180 mins. 10 μl of the reaction volume of each sample was then transferred to a white 384-well proxiplate in quadruplets. 2.5 μl of Malachite Green reagent was added to all the wells and the plate was equilibrated for 15 mins. The reaction was stopped by adding 12% H2SO4 and the plate was read for fluorescence at 620 nm (λex=573 nm). The amount of phosphate released was estimated from a phosphate standard curve generated at the same experimental conditions. Emax (Maximal percent activation) and EC50 (concentration of test compound for half maximal activation) were estimated by fitting the dose response data to a sigmoidal curve fitting equation using Graphpad Prism software V.7.0.

COc1ccc(NC(=O)c2cnc[nH]2)cc1S(=O)(=O)N(CCCCCCN)c1ccc(Br)cc1 [Compound 266, N-(3-(N-(6-aminohexyl)-N-(4-bromophenyl)sulfamoyl)-4-methoxyphenyl)-1H-imidazole-5-carboxamide]
EC50: < 10 µM
Emax: 160 to 199%

COc1ccc(NC(=O)c2ncc(C(F)(F)F)[nH]2)cc1S(=O)(=O)Nc1ccc(Br)cc1 [Compound 229, N-(3-(N-(4-bromophenyl)sulfamoyl)-4-methoxyphenyl)-5-(trifluoromethyl)-1H-imidazole-2-carboxamide]
EC50: 20 to 100 µM
Emax: 160 to 199%

O=C(Nc1ccc(OCCCCCCO)c(S(=O)(=O)Nc2ccc(Br)cc2)c1)c1cnc[nH]1 [Compound 274]
EC50: 10 to 20 µM
Emax: 200 to 300%

CC(C)c1ccc(NC(=O)c2ncc(-c3ccccc3)o2)cc1S(=O)(=O)Nc1ccc(Cl)cc1 [Compound 580]
EC50: < 10 µM
Emax: 123 to 159%

CCOC(=O)CCCCCN(c1ccc(Br)cc1)S(=O)(=O)c1cc(NC(=O)c2ncco2)ccc1OC [Compound 247]
EC50: < 10 µM
Emax: 123 to 159%

COc1ccc(NC(=O)c2cnc(-c3ccccc3)[nH]2)cc1S(=O)(=O)N(CCCCCC[P+](c1ccccc1)(c1ccccc1)c1ccccc1)c1ccc(Br)cc1 [Compound 242]
EC50: < 10 µM
Emax: 200 to 300%

COc1ccc(NC(=O)c2nc(-c3ccccc3)ccc2C)cc1S(=O)(=O)Nc1ccc(Cl)cc1 [Compound 565, N-(3-(N-(4-chlorophenyl)sulfamoyl)-4-methoxyphenyl)-3-methyl-6-phenylpicolinamide]
EC50: 20 to 100 µM
Emax: 123 to 159%

COc1ccc(NC(=O)c2nccs2)cc1S(=O)(=O)Nc1ccc(Br)cc1 [Compound 304]
EC50: 10 to 20 µM
Emax: 200 to 300%

COc1ccc(NC(=O)c2cnc(C(F)(F)F)[nH]2)cc1S(=O)(=O)N(CCCCCO)c1ccc(Br)cc1 [Compound 431, N-(3-(N-(4-bromophenyl)-N-(5-hydroxypentyl)sulfamoyl)-4-methoxyphenyl)-2-(trifluoromethyl)-1H-imidazole-5-carboxamide]
EC50: 20 to 100 µM
Emax: > 300%

COc1ccc(NC(=O)c2csc(-c3ccccc3)n2)cc1S(=O)(=O)Nc1ccc(Cl)cc1 [Compound 487]
EC50: 10 to 20 µM
Emax: 160 to 199%

O=C(Nc1cccc(S(=O)(=O)N2CCOc3cc(Cl)ccc32)c1)c1ncco1 [Compound 367]
EC50: 20 to 100 µM
Emax: 200 to 300%

COc1ccc(NC(=O)c2cnc(-c3ccccc3)o2)cc1S(=O)(=O)Nc1c(C)cccc1C [Compound 470]
EC50: < 10 µM
Emax: 200 to 300%

Cc1cccc(C)c1NS(=O)(=O)c1cc(NC(=O)c2cnc(-c3ccccc3)[nH]2)ccc1F [Compound 436]
EC50: < 10 µM
Emax: 160 to 199%

CCOC(=O)Cc1ccc(NC(=O)c2cnccc2C)cc1S(=O)(=O)Nc1ccc(C)cc1 [Compound 317]
EC50: 10 to 20 µM
Emax: 160 to 199%

COc1ccc(NC(=O)c2cnc(C(F)(F)F)[nH]2)cc1S(=O)(=O)Nc1ccc(C)cc1 [Compound 224]
EC50: 20 to 100 µM
Emax: 123 to 159%

COc1ccc(NC(=O)c2cnc[nH]2)cc1S(=O)(=O)N(CCOCCOCCBr)c1ccc(Br)cc1 [Compound 286]
EC50: < 10 µM
Emax: 160 to 199%

CCc1ccc(NC(=O)c2cnc(C(F)(F)F)[nH]2)cc1S(=O)(=O)Nc1ccc(Br)cc1 [Compound 216]
EC50: < 10 µM
Emax: 200 to 300%

NCCCCCCOc1ccc(NC(=O)c2cnc[nH]2)cc1S(=O)(=O)Nc1ccc(Br)cc1 [Compound 356, N-(4-((6-aminohexyl)oxy)-3-(N-(4-bromophenyl)sulfamoyl)phenyl)-1H-imidazole-4-carboxamide]
EC50: 20 to 100 µM
Emax: 200 to 300%

COc1ccc(NC(=O)c2cnc(C(F)(F)F)[nH]2)cc1S(=O)(=O)N(CCCCCCBr)c1ccc(Br)cc1 [Compound 262]
EC50: 10 to 20 µM
Emax: 200 to 300%

O=C(Nc1cccc(S(=O)(=O)N2CCOc3cc(Cl)ccc32)c1)c1ncc(-c2ccccc2)o1 [Compound 477]
EC50: < 10 µM
Emax: 160 to 199%

COc1ccc(NC(=O)c2cnc(-c3ccccc3)[nH]2)cc1S(=O)(=O)N(CCOCCOCCN)c1ccc(Br)cc1 [Compound 637]
EC50: 20 to 100 µM
Emax: > 300%

COc1ccc(NC(=O)c2ocnc2C)cc1S(=O)(=O)Nc1ccc(Br)cc1 [Compound 299]
EC50: 20 to 100 µM
Emax: 160 to 199%

O=C(O)/C=C/c1ccc(NC(=O)c2ncc(-c3ccccc3)o2)cc1S(=O)(=O)Nc1ccc(Cl)cc1 [Compound 648]
EC50: < 10 µM
Emax: 160 to 199%

COc1ccc(NC(=O)c2cnccc2C)cc1S(=O)(=O)Nc1ccc(C)cc1 [Compound 54]
EC50: 20 to 100 µM
Emax: 160 to 199%

CC(=O)c1c(C)[nH]c(C(=O)Nc2cccc(S(=O)(=O)N3CCCC3)c2)c1C [Compound 148]
EC50: 10 to 20 µM
Emax: 200 to 300%

COc1ccc(NC(=O)c2ncc(-c3ccccc3)o2)cc1S(=O)(=O)Nc1c(Cl)cccc1Cl [Compound 451]
EC50: < 10 µM
Emax: 123 to 159%

O=C(Nc1ccc(F)c(S(=O)(=O)Nc2ccc(Br)cc2)c1)c1cnc(C(F)(F)F)[nH]1 [Compound 186]
EC50: 20 to 100 µM
Emax: 200 to 300%

CCc1ccc(NC(=O)c2cnccc2C)cc1S(=O)(=O)Nc1ccc(C)cc1 [Compound 277]
EC50: 10 to 20 µM
Emax: 123 to 159%

COc1ccc(NC(=O)c2ncco2)cc1S(=O)(=O)Nc1ccc(Br)cc1 [Compound 172]
EC50: < 10 µM
Emax: 160 to 199%

O=C(Nc1cccc(S(=O)(=O)Nc2ccc(Br)cc2)c1)c1cnc(-c2ccccc2)[nH]1 [Compound 169]
EC50: 10 to 20 µM
Emax: 200 to 300%

COc1ccc(NC(=O)c2cnc(-c3ccccc3)[nH]2)cc1S(=O)(=O)Nc1ccc(N=[N+]=[N-])cc1 [Compound 380, N-(3-(N-(4-azidophenyl)sulfamoyl)-4-methoxyphenyl)-2-phenyl-1H-imidazole-5-carboxamide]
EC50: < 10 µM
Emax: 160 to 199%

COc1ccc(NC(=O)c2cnc[nH]2)cc1S(=O)(=O)N(CCOCCOCC[P+](c1ccccc1)(c1ccccc1)c1ccccc1)c1ccc(Br)cc1 [Compound 296]
EC50: < 10 µM
Emax: 200 to 300%

COc1ccc(NC(=O)c2cnccc2C(C)C)cc1S(=O)(=O)Nc1ccc(Br)cc1 [Compound 493]
EC50: 20 to 100 µM
Emax: 160 to 199%

COc1ccc(NC(=O)c2cnccc2C)cc1S(=O)(=O)Nc1c(C)cccc1C [Compound 471]
EC50: 20 to 100 µM
Emax: 160 to 199%

CCc1ccc(NC(=O)c2nnc(-c3ccccc3)[nH]2)cc1S(=O)(=O)Nc1ccc(Cl)cc1 [Compound 595]
EC50: 10 to 20 µM
Emax: 200 to 300%

Cc1ncoc1C(=O)Nc1cccc(S(=O)(=O)N2CCOc3cc(Cl)ccc32)c1 [Compound 479]
EC50: 10 to 20 µM
Emax: 160 to 199%

CC(C)c1ccc(NC(=O)c2cnc(-c3ccccc3)o2)cc1S(=O)(=O)Nc1ccc(Cl)cc1 [Compound 576]
EC50: 10 to 20 µM
Emax: 160 to 199%

COc1ccc(NC(=O)c2nnc(-c3ccccc3)o2)cc1S(=O)(=O)Nc1ccc(Cl)cc1 [Compound 424]
EC50: < 10 µM
Emax: 123 to 159%

CCc1ccc(NC(=O)c2ncco2)cc1S(=O)(=O)Nc1ccc(C(F)(F)F)cc1 [Compound 316]
EC50: 20 to 100 µM
Emax: 200 to 300%

CCc1ccc(NC(=O)c2cnc(-c3ccccc3)[nH]2)cc1S(=O)(=O)Nc1ccc(Br)cc1 [Compound 170]
EC50: < 10 µM
Emax: 160 to 199%

COc1ccc(NC(=O)c2oc(C(F)(F)F)nc2C)cc1S(=O)(=O)Nc1ccc(Br)cc1 [Compound 315]
EC50: 10 to 20 µM
Emax: 160 to 199%

CCOC(=O)Cc1ccc(NC(=O)c2ncc(-c3ccccc3)o2)cc1S(=O)(=O)Nc1ccc(Cl)cc1 [Compound 558]
EC50: 10 to 20 µM
Emax: 160 to 199%

COc1ccc(NC(=O)c2cnc(C(F)(F)F)[nH]2)cc1S(=O)(=O)Nc1ccccc1 [Compound 223]
EC50: 10 to 20 µM
Emax: 160 to 199%

COc1ccc(NC(=O)c2ncco2)cc1S(=O)(=O)N(CCCCCC(=O)O)c1ccc(Br)cc1 [Compound 250]
EC50: 10 to 20 µM
Emax: 200 to 300%

O=C(Nc1ccc(CCO)c(S(=O)(=O)Nc2ccc(Br)cc2)c1)c1ncco1 [Compound 333, N-(3-(N-(4-bromophenyl)sulfamoyl)-4-(2-hydroxyethyl)phenyl) oxazole-2-carboxamide]
EC50: 20 to 100 µM
Emax: 160 to 199%
